The source of these data is ChEMBL document CHEMBL1201862, “PubChem BioAssay data set” (2004).

Activity calls are given as the source filed them.

The target of experiment [1] is Mitogen-activated protein kinase kinase kinase kinase 2 (Homo sapiens, UniProt Q12851). In kind it is functional.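 Note: measured as one member of a kinome-wide kinase panel, with MAP4K2 as the panel entry.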
The target of experiment [2] is Glycogen synthase kinase-3 alpha (Homo sapiens, UniProt P49840). It is filed as functional.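 Note: GSK3A result taken from a broad kinome-wide kinase panel.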
For experiment [3], the target named is Tyrosine-protein kinase Fyn (Homo sapiens, UniProt P06241). In kind it is functional.
For experiment [4], the target named is Platelet-derived growth factor receptor alpha (Homo sapiens, UniProt P16234). The experiment can be described thus: Navigating the Kinome. Panel member name: PDGFRA. In kind it is functional.
The target in experiment [5] is Leukocyte tyrosine kinase receptor (Homo sapiens, UniProt P29376). Put plainly: Navigating the Kinome. Panel member name: LTK. In kind it is functional.
The target in experiment [6] is Protein kinase C theta type (Homo sapiens, UniProt Q04759). The experiment can be described thus: Navigating the Kinome. Panel member name: PRKCQ. It is filed as functional.
The target in experiment [7] is Dual specificity protein kinase CLK2 (Homo sapiens, UniProt P49760). In kind it is functional.
Experiment [8] addresses Macrophage-stimulating protein receptor (Homo sapiens, UniProt Q04912). The experiment can be described thus: Navigating the Kinome. Panel member name: MST1R. It is filed as functional.
Experiment [9] deals with Leucine-rich repeat serine/threonine-protein kinase 2 (Homo sapiens, UniProt Q5S007). It is filed as functional.
For another experiment, the target named is Focal adhesion kinase 1 (Homo sapiens, UniProt Q05397). It is filed as functional.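 Note: measured as one member of a kinome panel.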
In experiment [10] the target is Hepatocyte growth factor receptor (Homo sapiens, UniProt P08581). In kind it is functional.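 Note: kinase panel profiling across the kinome, with MET as the panel member.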
Experiment [11] deals with Tyrosine-protein kinase JAK2 (Homo sapiens, UniProt O60674). In kind it is functional.
In experiment [12] the target is Serine/threonine-protein kinase D3 (Homo sapiens, UniProt O94806). It is filed as functional.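 Note: determined within a kinase panel screen, with PRKCN as the panel member.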
For experiment [13], the target named is Casein kinase I isoform alpha (Homo sapiens, UniProt P48729). It is filed as functional.
In experiment [14] the target is Tyrosine-protein kinase Lck (Homo sapiens, UniProt P06239). In kind it is functional.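 Note: lck was assayed as one member of a kinase panel.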
The target of experiment [15] is Fibroblast growth factor receptor 1 (Homo sapiens, UniProt P11362). It is filed as functional.
For experiment [16], the target named is Rho-associated protein kinase 1 (Homo sapiens, UniProt Q13464). In kind it is functional.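 Note: measured within a broad kinome-wide panel profiling many kinases.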
Experiment [17] deals with Mitogen-activated protein kinase 9 (Homo sapiens, UniProt P45984). It is filed as functional.
Experiment [18] deals with Tyrosine-protein kinase receptor TYRO3 (Homo sapiens, UniProt Q06418). In kind it is functional.
The target in experiment [19] is Insulin-like growth factor 1 receptor (Homo sapiens, UniProt P08069). The experiment can be described thus: Navigating the Kinome. Panel member name: IGF1R. It is filed as functional.
Experiment [20] addresses Vascular endothelial growth factor receptor 1 (Homo sapiens, UniProt P17948). In kind it is functional.
Another experiment has as its target LIM domain kinase 1 (Homo sapiens, UniProt P53667). The experiment can be described thus: Navigating the Kinome. Panel member name: LIMK1. In kind it is functional.
For experiment [21], the target named is Dual specificity mitogen-activated protein kinase kinase 2 (Homo sapiens, UniProt P36507). The experiment can be described thus: Navigating the Kinome. Panel member name: MAP2K2. In kind it is functional.
The target of the next experiment is Activin receptor type-1 (Homo sapiens, UniProt Q04771). Put plainly: Navigating the Kinome. Panel member name: ACVR1. It is filed as functional.
The target of experiment [22] is High affinity nerve growth factor receptor (Homo sapiens, UniProt P04629). In kind it is functional.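 Note: NTRK1 tested as one member of a kinome-wide profiling panel.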
Experiment [23] deals with Cyclin-dependent kinase 5 (Homo sapiens, UniProt Q00535). It is filed as functional.
Experiment [24] in a line: Vero cell cytotoxicity, dose response, cytotoxicity control for M. tuberculosis growth inhibitor project, Vero cells, purified and synthesized compounds, set 4 (AID 504854). In kind it is functional. The conditions noted are these: Mycobacterium tuberculosis.
A short description of experiment [25]: A Cell Based Secondary Assay to Explore Cytotoxicity in HepG2 Cells of Compounds that Modulate Mycobacterium tuberculosis in Media Containing Glycerol versus Media without Glycerol (2). In kind it is functional.
Experiment [26] in a line: THP-1 cell cytotoxicity, cytotoxicity control, set 4 (AID 504911). In kind it is functional. The conditions noted are these: Mycobacterium tuberculosis.
Experiment [27] in a line: Vero cell cytotoxicity, cytotoxicity control for M. tuberculosis inhibitor project, purified and synthesized samples, set 3 (AID 504684). The note with it: […]. It is filed as functional.
The target of a further experiment is T1, CAAX prenyl protease 2 (Homo sapiens, UniProt Q9Y256).
T1 sequence (Q9Y256 whole entry): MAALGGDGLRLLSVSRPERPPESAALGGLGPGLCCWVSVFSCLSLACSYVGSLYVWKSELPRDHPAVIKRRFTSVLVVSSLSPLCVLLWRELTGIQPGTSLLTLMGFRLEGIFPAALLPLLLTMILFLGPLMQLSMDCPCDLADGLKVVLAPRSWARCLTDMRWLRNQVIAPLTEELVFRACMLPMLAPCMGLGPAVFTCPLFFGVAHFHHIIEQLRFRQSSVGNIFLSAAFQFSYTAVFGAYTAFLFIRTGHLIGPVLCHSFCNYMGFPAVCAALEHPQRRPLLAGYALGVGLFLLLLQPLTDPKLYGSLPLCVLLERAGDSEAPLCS
The experiment can be described thus: inhibition of Ras-converting CAAX protease Rce1 – biochemical, yeast membranes, quenched-peptide fluorescence, cherry-pick, dose response (AID 588849).

A short description of experiment [28]: microbe, parasite or virus in culture. In kind it is functional. The conditions noted are these: Mycobacterium tuberculosis.
Experiment [29] can be described thus: THP-1 cell cytotoxicity, dose response, cytotoxicity control, set 3 (AID 504852). It is filed as functional. The conditions noted are these: Mycobacterium tuberculosis.
Experiment [30] can be described thus: Vero cell cytotoxicity, dose response, cytotoxicity control for M. tuberculosis growth inhibitor project, Vero cells, purified and synthesized compounds, set 5 (AID 504909). It is filed as functional. The note with it: Mycobacterium tuberculosis.
Experiment [31] is described as follows: A Cell Based Secondary Assay to Explore Cytotoxicity in THP-1 Cells of Compounds that Modulate Mycobacterium tuberculosis in Media Containing Glycerol versus Media without Glycerol (2). It is filed as functional.
A short description of experiment [32]: HepG2 cell cytotoxicity, dose response, cytotoxicity control, set 3 (AID 504853). In kind it is functional. The conditions noted are these: Mycobacterium tuberculosis.
Another experiment concerns the target CAAX prenyl protease 1 (Saccharomyces cerevisiae S288c, UniProt P47154). Put plainly: yeast CAAX protease Ste24 inhibition – biochemical, S. cerevisiae, plate reader, cherry-pick, dose response (AID 488815).
For experiment [33], the target named is T2, Neuropeptides B/W receptor type 1 (Homo sapiens, UniProt P48145).
T2 sequence (P48145 whole entry): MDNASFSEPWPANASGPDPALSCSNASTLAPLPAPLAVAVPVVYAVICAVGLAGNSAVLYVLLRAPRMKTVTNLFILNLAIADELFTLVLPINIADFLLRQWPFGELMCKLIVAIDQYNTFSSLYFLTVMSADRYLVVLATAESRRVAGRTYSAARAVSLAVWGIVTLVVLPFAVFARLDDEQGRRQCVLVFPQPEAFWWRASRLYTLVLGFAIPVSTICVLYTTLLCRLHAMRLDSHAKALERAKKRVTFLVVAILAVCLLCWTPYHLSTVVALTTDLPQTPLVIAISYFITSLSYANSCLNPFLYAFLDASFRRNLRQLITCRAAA
Put plainly: human NPBW1 receptor blockade, IC50 – cell-based, fluorescence, dose response, set 6, late-stage follow-up (AID 588583). It is filed as functional.

For experiment [34], the target named is Melanin-concentrating hormone receptor 1 (Homo sapiens, UniProt Q99705). Put plainly: Late-stage fluorescence-based counterscreen for antagonists of the G-protein coupled receptor 7 (GPR7): cell-based dose response assay to identify antagonists of the melanin-concentrating hormone receptor 1 (MCHR1) Set 6. It is filed as functional.

Chain of Casein kinase I isoform alpha (P48729 whole entry, canonical isoform): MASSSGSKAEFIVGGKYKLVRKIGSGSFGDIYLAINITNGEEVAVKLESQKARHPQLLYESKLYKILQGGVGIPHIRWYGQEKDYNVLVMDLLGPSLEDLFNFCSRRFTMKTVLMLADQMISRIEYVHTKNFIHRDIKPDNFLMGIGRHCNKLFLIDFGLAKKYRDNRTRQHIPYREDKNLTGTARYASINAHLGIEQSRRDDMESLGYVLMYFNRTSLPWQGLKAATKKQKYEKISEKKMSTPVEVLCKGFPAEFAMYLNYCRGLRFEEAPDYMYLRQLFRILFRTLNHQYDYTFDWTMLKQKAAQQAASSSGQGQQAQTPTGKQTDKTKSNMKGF
Chain of Activin receptor type-1 (Q04771 whole entry): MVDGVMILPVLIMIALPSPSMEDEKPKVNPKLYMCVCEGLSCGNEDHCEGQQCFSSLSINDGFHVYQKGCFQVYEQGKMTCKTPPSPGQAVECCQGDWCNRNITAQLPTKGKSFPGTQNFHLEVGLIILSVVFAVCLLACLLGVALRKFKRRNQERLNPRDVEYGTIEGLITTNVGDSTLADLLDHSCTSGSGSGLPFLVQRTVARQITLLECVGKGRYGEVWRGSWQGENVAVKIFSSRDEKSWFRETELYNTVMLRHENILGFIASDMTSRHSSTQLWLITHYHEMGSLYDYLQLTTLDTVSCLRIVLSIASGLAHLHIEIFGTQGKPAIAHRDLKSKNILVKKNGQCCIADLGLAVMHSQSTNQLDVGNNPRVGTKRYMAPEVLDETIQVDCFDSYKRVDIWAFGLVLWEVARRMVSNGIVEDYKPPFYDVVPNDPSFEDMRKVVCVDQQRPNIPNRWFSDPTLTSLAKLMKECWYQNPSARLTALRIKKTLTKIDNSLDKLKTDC
Chain of High affinity nerve growth factor receptor (P04629 whole entry): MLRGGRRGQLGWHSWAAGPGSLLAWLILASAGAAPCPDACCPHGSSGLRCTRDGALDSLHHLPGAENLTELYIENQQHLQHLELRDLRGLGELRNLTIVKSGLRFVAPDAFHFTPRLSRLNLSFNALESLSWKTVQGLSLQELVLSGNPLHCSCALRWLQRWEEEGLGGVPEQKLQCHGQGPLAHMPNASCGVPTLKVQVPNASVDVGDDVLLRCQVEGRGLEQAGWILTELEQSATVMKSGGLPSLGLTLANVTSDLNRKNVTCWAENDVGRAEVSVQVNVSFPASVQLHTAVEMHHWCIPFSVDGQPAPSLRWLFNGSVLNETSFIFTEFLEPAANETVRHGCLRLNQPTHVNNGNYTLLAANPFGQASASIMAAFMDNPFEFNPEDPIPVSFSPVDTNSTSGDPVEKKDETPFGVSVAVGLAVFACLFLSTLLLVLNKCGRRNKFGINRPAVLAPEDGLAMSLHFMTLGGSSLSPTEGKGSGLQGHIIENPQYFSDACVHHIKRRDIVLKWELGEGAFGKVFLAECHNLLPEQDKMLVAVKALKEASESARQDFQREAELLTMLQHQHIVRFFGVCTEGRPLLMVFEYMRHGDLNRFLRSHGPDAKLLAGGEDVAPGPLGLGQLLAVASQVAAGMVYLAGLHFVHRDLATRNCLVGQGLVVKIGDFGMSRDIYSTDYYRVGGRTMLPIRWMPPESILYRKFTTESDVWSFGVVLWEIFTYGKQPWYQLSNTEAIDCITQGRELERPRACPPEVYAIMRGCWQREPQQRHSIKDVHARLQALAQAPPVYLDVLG
Chain of Mitogen-activated protein kinase kinase kinase kinase 2 (Q12851 whole entry): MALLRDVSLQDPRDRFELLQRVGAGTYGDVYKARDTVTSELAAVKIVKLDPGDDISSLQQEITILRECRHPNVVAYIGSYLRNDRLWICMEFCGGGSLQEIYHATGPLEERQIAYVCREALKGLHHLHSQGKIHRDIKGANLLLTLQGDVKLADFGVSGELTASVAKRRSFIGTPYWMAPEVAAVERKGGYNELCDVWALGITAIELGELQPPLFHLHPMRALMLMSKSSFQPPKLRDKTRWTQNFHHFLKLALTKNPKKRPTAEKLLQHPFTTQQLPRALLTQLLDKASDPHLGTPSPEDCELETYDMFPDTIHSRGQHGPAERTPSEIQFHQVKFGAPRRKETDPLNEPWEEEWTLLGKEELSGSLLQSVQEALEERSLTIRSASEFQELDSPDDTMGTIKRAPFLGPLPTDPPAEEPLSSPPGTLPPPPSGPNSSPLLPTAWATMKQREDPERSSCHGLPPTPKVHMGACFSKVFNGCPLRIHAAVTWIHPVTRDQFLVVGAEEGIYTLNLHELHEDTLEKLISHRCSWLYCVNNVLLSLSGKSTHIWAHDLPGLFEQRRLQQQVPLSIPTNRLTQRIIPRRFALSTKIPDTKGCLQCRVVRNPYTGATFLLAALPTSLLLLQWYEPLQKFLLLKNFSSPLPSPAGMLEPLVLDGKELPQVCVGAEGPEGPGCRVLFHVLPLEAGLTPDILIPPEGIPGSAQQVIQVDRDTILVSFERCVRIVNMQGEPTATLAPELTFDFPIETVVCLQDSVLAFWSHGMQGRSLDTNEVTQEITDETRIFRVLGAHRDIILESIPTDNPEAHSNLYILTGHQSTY
Chain of Leucine-rich repeat serine/threonine-protein kinase 2 (Q5S007 whole entry): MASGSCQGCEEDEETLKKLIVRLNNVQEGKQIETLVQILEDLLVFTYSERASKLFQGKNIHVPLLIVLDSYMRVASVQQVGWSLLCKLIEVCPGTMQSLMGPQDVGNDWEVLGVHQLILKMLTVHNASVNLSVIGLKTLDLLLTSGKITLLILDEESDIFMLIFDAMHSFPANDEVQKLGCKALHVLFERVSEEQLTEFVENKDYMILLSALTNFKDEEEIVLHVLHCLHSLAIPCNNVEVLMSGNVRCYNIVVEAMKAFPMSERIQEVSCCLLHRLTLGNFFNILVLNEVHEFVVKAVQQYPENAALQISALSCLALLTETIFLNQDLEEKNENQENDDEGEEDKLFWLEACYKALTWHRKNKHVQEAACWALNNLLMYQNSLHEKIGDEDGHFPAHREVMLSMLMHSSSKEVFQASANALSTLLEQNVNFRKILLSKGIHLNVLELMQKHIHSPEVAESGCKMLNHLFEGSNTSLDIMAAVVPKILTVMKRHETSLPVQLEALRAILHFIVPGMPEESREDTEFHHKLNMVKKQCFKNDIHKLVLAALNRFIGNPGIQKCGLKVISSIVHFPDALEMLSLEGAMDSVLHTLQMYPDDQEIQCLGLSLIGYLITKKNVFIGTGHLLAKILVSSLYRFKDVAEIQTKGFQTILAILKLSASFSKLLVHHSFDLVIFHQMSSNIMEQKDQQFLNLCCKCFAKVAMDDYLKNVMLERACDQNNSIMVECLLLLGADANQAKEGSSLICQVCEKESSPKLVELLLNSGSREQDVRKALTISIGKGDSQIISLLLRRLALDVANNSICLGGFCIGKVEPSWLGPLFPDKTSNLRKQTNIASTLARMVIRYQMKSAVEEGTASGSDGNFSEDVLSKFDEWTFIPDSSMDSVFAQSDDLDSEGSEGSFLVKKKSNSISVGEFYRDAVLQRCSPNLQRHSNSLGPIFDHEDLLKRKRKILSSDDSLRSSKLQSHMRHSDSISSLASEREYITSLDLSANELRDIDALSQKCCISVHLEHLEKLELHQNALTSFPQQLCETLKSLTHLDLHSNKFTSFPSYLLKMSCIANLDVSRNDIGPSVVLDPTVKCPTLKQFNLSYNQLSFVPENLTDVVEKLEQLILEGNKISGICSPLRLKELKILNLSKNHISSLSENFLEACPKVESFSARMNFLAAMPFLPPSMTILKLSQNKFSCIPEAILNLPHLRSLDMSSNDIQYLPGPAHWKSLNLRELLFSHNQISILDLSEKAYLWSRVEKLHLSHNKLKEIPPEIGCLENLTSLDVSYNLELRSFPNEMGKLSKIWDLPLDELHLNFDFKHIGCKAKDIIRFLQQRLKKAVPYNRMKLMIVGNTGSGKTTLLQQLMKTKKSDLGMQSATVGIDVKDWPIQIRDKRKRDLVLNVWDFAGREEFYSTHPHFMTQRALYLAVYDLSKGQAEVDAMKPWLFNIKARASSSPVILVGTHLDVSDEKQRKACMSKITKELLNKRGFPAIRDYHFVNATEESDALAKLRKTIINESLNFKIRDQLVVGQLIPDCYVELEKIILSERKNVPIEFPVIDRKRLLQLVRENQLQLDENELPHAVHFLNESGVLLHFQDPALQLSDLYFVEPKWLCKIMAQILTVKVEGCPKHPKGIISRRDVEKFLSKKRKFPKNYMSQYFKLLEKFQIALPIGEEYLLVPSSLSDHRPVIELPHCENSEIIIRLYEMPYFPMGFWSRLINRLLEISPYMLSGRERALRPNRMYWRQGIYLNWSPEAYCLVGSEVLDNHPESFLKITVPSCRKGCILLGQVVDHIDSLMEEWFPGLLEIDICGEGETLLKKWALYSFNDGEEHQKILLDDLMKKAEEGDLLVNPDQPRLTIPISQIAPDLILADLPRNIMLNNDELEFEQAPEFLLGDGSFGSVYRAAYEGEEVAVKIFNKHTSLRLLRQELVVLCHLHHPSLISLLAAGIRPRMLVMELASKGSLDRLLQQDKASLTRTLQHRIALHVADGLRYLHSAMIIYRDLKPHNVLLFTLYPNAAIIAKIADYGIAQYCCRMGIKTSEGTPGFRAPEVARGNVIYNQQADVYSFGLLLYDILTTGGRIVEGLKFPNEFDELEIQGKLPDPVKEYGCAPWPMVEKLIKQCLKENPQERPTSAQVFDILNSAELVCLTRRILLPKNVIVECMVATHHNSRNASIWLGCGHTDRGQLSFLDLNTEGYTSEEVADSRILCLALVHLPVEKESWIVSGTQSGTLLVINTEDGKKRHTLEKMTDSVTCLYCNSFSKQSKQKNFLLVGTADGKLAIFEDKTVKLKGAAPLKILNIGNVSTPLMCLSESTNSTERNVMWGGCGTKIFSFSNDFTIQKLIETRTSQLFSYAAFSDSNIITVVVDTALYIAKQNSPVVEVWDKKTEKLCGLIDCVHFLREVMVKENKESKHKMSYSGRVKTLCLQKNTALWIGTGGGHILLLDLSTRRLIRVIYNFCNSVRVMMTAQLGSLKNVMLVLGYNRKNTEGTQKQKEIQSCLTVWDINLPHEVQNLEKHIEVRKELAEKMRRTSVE

As for `Nc1ncnc2c1c(-c1cnc3[nH]ccc3c1)nn2C1CCCC1`, the Ki was 316 nM (active) in experiment [1]; 2000 nM (active) in experiment [2]; 79.4 nM (active) in experiment [3]; 316 nM (active) in [4]; 158 nM (active) in experiment [5]; 501 nM (active) in experiment [6]. The Ki in experiment [7] was 1000 nM (active); in experiment [8] it was 126 nM (active); in experiment [9] it was 63.1 nM (active); on Focal adhesion kinase 1, 1260 nM (active); in experiment [10], > 2510 nM (inactive); in experiment [11] it was 1000 nM (active). Further, the Ki is 251 nM (active) in experiment [12]; 39.8 nM (active) in experiment [13]; 158 nM (active) in experiment [14]; 100 nM (active) in experiment [15]; 200 nM (active) in experiment [16]; 1260 nM (active) in [17]. Also, the Ki was 794 nM (active) in [18]; 398 nM (active) in experiment [19]; 63.1 nM (active) in experiment [20]; 158 nM (active) at LIM domain kinase 1; 1000 nM (active) in [21]; 63.1 nM (active) on Activin receptor type-1. Moreover, the results for the Ki in experiment [22] and in experiment [23] were > 3160 nM (inactive) and 1260 nM (active), respectively.

With `Cc1cc(Br)ccc1NC(=O)c1cnc(N2CCN(c3ccccn3)CC2)c2ccccc12`, the CC50 in experiment [24] is 82000 nM (active); in experiment [25] it was > 50000 nM (active); in [26], 13200 nM (active); in experiment [27] it was 46300 nM (active); in experiment [28], > 40000 nM (active); in experiment [29], 39800 nM (active). Besides, the CC50 is > 100000 nM (active) in [30], 86000 nM (active) in experiment [31] and > 50000 nM (active) in experiment [32]. Moreover, the AC50 at CAAX prenyl protease 2 is 8930 nM (active); on CAAX prenyl protease 1 it was 7540 nM (active).

As to `N#Cc1cccc(C(C#N)c2c(Br)cnn(Cc3cccc4ccccc34)c2=O)c1` (centres undefined), the IC50 in experiment [33] and in experiment [34] was ~693 nM (active) each time.

As a reminder, the Ki is a measure of affinity in units of concentration, obtained from inhibition or displacement. The term AC50 denotes the concentration at which the activity in the assay is half-maximal. Broadly, the IC50 is the concentration that gives 50% inhibition.
